Patent publication US20220098203A1 (priority 2018, published 2022)
Like-named read-outs stand apart in the source and are kept apart here.

What was measured:
MAT2A homodimer = target: T1, MAT2A homodimer (Homo sapiens, UniProt P31153); test: MAT2A biochemical assay (liberated phosphate, PiColorLock Gold); settings: Table 5a; MAT2A biochemical assay; read-out: Enzyme Inhibition
T1 construct: inferred from the Ni sepharose purification and imidazole elution; made in house; host or cells: SF9 insect cells, recombinant baculovirus (Bac to Bac, pFASTBAC1)
Outline: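 Baculovirus/Sf9-expressed, Ni-purified MAT2A homodimer preincubated with compound 60 min at 25 °C, then reacted 60 min at 25 °C with substrate mix of 500 μM ATP and 400 μM L-methionine, pH 7.0 (mix, not final levels). Phosphate released with SAM measured by PiColorLock Gold against phosphate standard curve.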

[1] = system: SAM in HCT116 MTAP-deleted cells; test: Cellular assay of target engagement (SAM), LC-MS/MS; format: cell-based, human; settings: 72 h, read-out: Cell 72 h SAM Inhibition (MTAP −/−)
Outline: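 HCT116 cells with MTAP deleted were treated with compound for 72 h at 37°C/5% CO2. After quenching lysis in cold 80% methanol with 1 M acetic acid, SAM was quantified by LC-MS/MS against a d3-SAM internal standard.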

HCT116 MTAP+/+ = test: Inhibition of cellular proliferation (Cell Titer Glo), HCT116 MTAP+/+; format: cell-based; settings: Homo sapiens, HCT-116, 96 h, Table 5a, 4 days, read-out: 4 Day Relative Growth Inhibition (MTAP +/+)
Outline: (§1)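 Isogenic HCT116 MTAP+/+ and MTAP−/− cells were plated, treated with MAT2A inhibitor after 24 h, and incubated 4 days at 37 °C. Proliferation was read by CellTiter-Glo ATP luminescence, blank-subtracted and normalized to 0.2% DMSO control.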

HCT116 MTAP-/- = test: Inhibition of cellular proliferation (Cell Titer Glo), HCT116 MTAP-/-; format: cell-based, human; settings: 4 days, read-out: 4 Day Relative Growth Inhibition (MTAP −/−)
Outline: as §1

[2] = Homo sapiens, HCT-116, Table 5a
[3] = Homo sapiens, HCT-116, 96 h, Table 5a
[4] = Table 6, select pairs of compounds

T1 sequence (P31153 whole entry): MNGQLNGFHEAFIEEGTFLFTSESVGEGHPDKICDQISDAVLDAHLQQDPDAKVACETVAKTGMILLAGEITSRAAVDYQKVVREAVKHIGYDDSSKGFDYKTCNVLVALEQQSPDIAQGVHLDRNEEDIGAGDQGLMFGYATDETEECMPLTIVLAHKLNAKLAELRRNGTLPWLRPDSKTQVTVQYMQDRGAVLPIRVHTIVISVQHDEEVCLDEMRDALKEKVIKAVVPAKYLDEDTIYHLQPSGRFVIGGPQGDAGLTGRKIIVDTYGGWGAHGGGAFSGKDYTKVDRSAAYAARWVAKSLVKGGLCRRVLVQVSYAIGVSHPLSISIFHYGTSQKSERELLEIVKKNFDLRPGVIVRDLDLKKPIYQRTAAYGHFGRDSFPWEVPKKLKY

Structure (SMILES)	IC50 (MAT2A homodimer) [µM]	IC50 [1, 2] [µM]	IC50 (HCT116 MTAP+/+) [µM]	IC50 (HCT116 MTAP-/-; [3]) [µM]	IC50 [1, 4] [µM]	IC50 (HCT116 MTAP-/-; [4]) [µM]
CCNc1ncc2c(n1)N(c1ccc(OC(F)F)cc1)C(=O)N(c1ccc3nn(C)cc3c1)C2 [Example 190, 1-(4-(difluoromethoxy)phenyl)-7-(ethylamino)-3-(2-methyl-2H-indazol-5-yl)-3,4-dihydropyrimido[4,5-d]pyrimidin-2(1H)-one]	< 0.1	0.1 to 1	> 1	0.1 to 1	0.1 to 1	0.1 to 1
[2H]C([2H])([2H])Oc1ccc(N2C(=O)N(c3ccc4nn(C)c(OC([2H])([2H])[2H])c4c3)Cc3ccc(OCC(F)F)nc32)cc1 [Example 103, 7-(2,2-difluoroethoxy)-3-(3-(methoxy-d3)-2-methyl-2H-indazol-5-yl)-1-(4-(methoxy-d3)phenyl)-3,4-dihydropyrido[2,3-d]pyrimidin-2(1H)-one]	< 0.1	< 0.1	> 1	< 0.1	–	–
Cn1cc2cc(N3Cc4cnc(NCC(F)(F)F)cc4N(c4ccc(OC(F)F)cc4)C3=O)ccc2n1 [Example 268]	< 0.1	0.1 to 1	> 1	> 1	–	–
[2H]C([2H])([2H])Oc1ccc(N2C(=O)N(c3ccc4nc(C)n(C)c4c3)Cc3ccc(OC(C)C)nc32)cc1 [Example 434, 3-(1,2-dimethyl-1H-benzo[d]imidazol-6-yl)-7-isopropoxy-1-(4-(methoxy-d3)phenyl)-3,4-dihydropyrido[2,3-d]pyrimidin-2(1H)-one]	< 0.1	< 0.1	0.1 to 1	< 0.1	–	–
COc1ccc(N2Cc3cnc(NCC(F)(F)F)nc3N(c3ccc(Br)cc3)C2=O)cc1 [Example 236, 1-(4-bromophenyl)-3-(4-methoxyphenyl)-7-((2,2,2-trifluoroethyl)amino)-3,4-dihydropyrimido[4,5-d]pyrimidin-2(1H)-one]	< 0.1	0.1 to 1	> 1	> 1	–	–
[2H]C([2H])([2H])Oc1ccc(N2C(=O)N(c3ccc4nn(C)cc4c3)Cc3c(N)nc(NCC(F)(F)F)nc32)cc1 [Example 430, 5-amino-1-(4-(methoxy-d3)phenyl)-3-(2-methyl-2H-indazol-5-yl)-7-((2,2,2-trifluoroethyl)amino)-3,4-dihydropyrimido[4,5-d]pyrimidin-2(1H)-one]	< 0.1	< 0.1	> 1	< 0.1	–	–
COc1ccc(N2C(=O)N(c3cn[nH]c3)Cc3cnc(NCC(F)(F)F)nc32)cc1 [Example 231, 1-(4-methoxyphenyl)-3-(1H-pyrazol-4-yl)-7-((2,2,2-trifluoroethyl)amino)-3,4-dihydropyrimido[4,5-d]pyrimidin-2(1H)-one]	0.1 to 1	0.1 to 1	> 1	> 1	–	–
[2H]C([2H])([2H])Oc1ccc(N2C(=O)N(c3ccc4nn(C)cc4c3)Cc3ncc(OCC(F)F)nc32)cc1 [Example 181, 7-(2,2-difluoroethoxy)-1-(4-(methoxy-d3)phenyl)-3-(2-methyl-2H-indazol-5-yl)-3,4-dihydropteridin-2(1H)-one]	< 0.1	< 0.1	> 1	< 0.1	–	–
COc1ccc(N2C(=O)N(c3ccc4nn(C)cc4c3)Cc3ccc(SCC(F)(F)F)nc32)cc1 [Example 161, 1-(4-methoxyphenyl)-3-(2-methyl-2H-indazol-5-yl)-7-((2,2,2-trifluoroethyl)thio)-3,4-dihydropyrido[2,3-d]pyrimidin-2(1H)-one]	< 0.1	0.1 to 1	> 1	0.1 to 1	0.1 to 1	0.1 to 1
COc1ccc(N2Cc3cnc(NCC(F)(F)F)nc3N(c3ccc(OC(F)F)cc3)C2=O)cc1 [Example 235, 1-(4-(Difluoromethoxy)phenyl)-3-(4-methoxyphenyl)-7-(2,2,2-trifluoroethylamino)-3,4-dihydropyrimido[4,5-d]pyrimidin-2(1H)-one]	< 0.1	0.1 to 1	> 1	0.1 to 1	–	–
[2H]C([2H])([2H])Oc1ccc(N2C(=O)N(c3ccc4nn(C)cc4c3)Cc3cnc(NCC)nc32)cc1 [Example 419, 7-(ethylamino)-1-(4-(methoxy-d3)phenyl)-3-(2-methyl-2H-indazol-5-yl)-3,4-dihydropyrimido[4,5-d]pyrimidin-2(1H)-one]	< 0.1	0.1 to 1	0.1 to 1	0.1 to 1	–	–
O=C1N(c2ccc3ncccc3c2)Cc2cnc(NCC(F)(F)F)nc2N1c1ccc(-c2nc[nH]n2)cc1 [Example 223, 1-(4-(1H-1,2,4-triazol-3-yl)phenyl)-3-(quinolin-6-yl)-7-((2,2,2-trifluoroethyl)amino)-3,4-dihydropyrimido[4,5-d]pyrimidin-2(1H)-one]	< 0.1	< 0.1	> 1	0.1 to 1	–	–
COc1ccc(N2Cc3ccc(NCC(F)(F)F)nc3N(c3ccc(-c4ncn[nH]4)cc3)C2=O)cc1 [Example 113, 1-(4-(1H-1,2,4-triazol-5-yl)phenyl)-3-(4-methoxyphenyl)-7-((2,2,2-trifluoroethyl)amino)-3,4-dihydropyrido[2,3-d]pyrimidin-2(1H)-one]	< 0.1	< 0.1	> 1	< 0.1	–	–

Next, values leading:

IC50 (MAT2A homodimer) [µM]	IC50 [1, 2] [µM]	IC50 (HCT116 MTAP+/+) [µM]	IC50 (HCT116 MTAP-/-; [3]) [µM]	IC50 [1, 4] [µM]	IC50 (HCT116 MTAP-/-; [4]) [µM]	Structure (SMILES)
< 0.1	< 0.1	0.1 to 1	< 0.1	–	–	O=C1N(c2ccc3ncsc3c2)Cc2ccc(OCC(F)F)nc2N1c1ccc(Br)cc1 [Example 409, 3-(benzo[d]thiazol-6-yl)-1-(4-bromophenyl)-7-(2,2-difluoroethoxy)-3,4-dihydropyrido[2,3-d]pyrimidin-2(1H)-one]
< 0.1	< 0.1	> 1	< 0.1	–	–	Cn1cc2cc(N3Cc4cnc(NCC(F)(F)F)nc4N(c4ccc(Br)cc4)C3=O)ccc2n1 [Example 425, 1-(4-bromophenyl)-3-(2-methyl-2H-indazol-5-yl)-7-((2,2,2-trifluoroethyl)amino)-3,4-dihydropyrimido[4,5-d]pyrimidin-2(1H)-one]
< 0.1	< 0.1	> 1	< 0.1	–	–	Cn1cc2cc(N3Cc4ccc(OCC(F)F)nc4N(c4ccc5[nH]ccc5c4)C3=O)ccc2n1 [Example 169, 7-(2,2-difluoroethoxy)-1-(1H-indol-5-yl)-3-(2-methyl-2H-indazol-5-yl)-3,4-dihydropyrido[2,3-d]pyrimidin-2(1H)-one]
< 0.1	< 0.1	> 1	< 0.1	–	–	Cn1cc2cc(N3Cc4ccc(NCC(F)(F)F)nc4N(c4ccc(-c5nc[nH]n5)cc4)C3=O)ccc2n1 [Example 114, 1-(4-(1H-1,2,4-triazol-3-yl)phenyl)-3-(2-methyl-2H-indazol-5-yl)-7-((2,2,2-trifluoroethyl)amino)-3,4-dihydropyrido[2,3-d]pyrimidin-2(1H)-one]
< 0.1	< 0.1	0.1 to 1	< 0.1	–	–	Cn1cc2cc(N3Cc4ccc(OCC(F)F)nc4N(c4ccc5scnc5c4)C3=O)ccc2n1 [Example 170, 1-(benzo[d]thiazol-5-yl)-7-(2,2-difluoroethoxy)-3-(2-methyl-2H-indazol-5-yl)-3,4-dihydropyrido[2,3-d]pyrimidin-2(1H)-one]
< 0.1	0.1 to 1	> 1	0.1 to 1	–	–	Cn1cc2cc(N3Cc4ccc(OCC(F)F)nc4N(c4ccc5sncc5c4)C3=O)ccc2n1 [Example 176, 1-(benzo[d]isothiazol-5-yl)-7-(2,2-difluoroethoxy)-3-(2-methyl-2H-indazol-5-yl)-3,4-dihydropyrido[2,3-d]pyrimidin-2(1H)-one]
< 0.1	< 0.1	> 1	0.1 to 1	–	–	Cn1cc2cc(N3Cc4ccc(OCC(F)(F)F)nc4N(c4ccc(OC(F)F)cc4)C3=O)ccc2n1 [Example 270]
< 0.1	< 0.1	0.1 to 1	< 0.1	–	–	Cn1cc2cc(N3Cc4ccc(OCC(F)F)nc4N(c4ccc5c(ccn5C)c4)C3=O)ccc2n1 [Example 172, 7-(2,2-difluoroethoxy)-1-(1-methyl-1H-indol-5-yl)-3-(2-methyl-2H-indazol-5-yl)-3,4-dihydropyrido[2,3-d]pyrimidin-2(1H)-one]
< 0.1	< 0.1	> 1	0.1 to 1	–	–	CCOc1ccc2c(n1)N(c1ccc(Cl)cc1)C(=O)N(c1ccc3nn(C)cc3c1)C2 [Example 146, 1-(4-chlorophenyl)-7-ethoxy-3-(2-methyl-2H-indazol-5-yl)-3,4-dihydropyrido[2,3-d]pyrimidin-2(1H)-one]
